The target of the test is Metallo-beta-lactamase type 2 (Klebsiella pneumoniae, UniProt C7C422). Put plainly: Competitive inhibition of NDM-1 (unknown origin) using penicillin G as substrate by Michaelis-Menten equation based kinetic analysis.
Chain of Metallo-beta-lactamase type 2 (C7C422 whole entry): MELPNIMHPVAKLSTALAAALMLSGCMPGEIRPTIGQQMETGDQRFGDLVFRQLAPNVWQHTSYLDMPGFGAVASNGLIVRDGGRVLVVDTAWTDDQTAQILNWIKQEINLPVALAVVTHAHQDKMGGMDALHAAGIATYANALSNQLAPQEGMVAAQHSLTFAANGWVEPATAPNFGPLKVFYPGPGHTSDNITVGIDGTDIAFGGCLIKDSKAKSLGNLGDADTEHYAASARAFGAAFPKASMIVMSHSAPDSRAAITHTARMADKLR
As for `N#Cc1c(-c2ccccc2)c(-c2ccccc2)n(Cc2ccccc2)c1/N=C/c1cccs1`, the affinity corresponds to a Ki of 1.7 µM.
The figure for `N#Cc1c(-c2ccccc2)c(-c2ccccc2)n(Cc2ccccc2)c1NC(=O)c1ccccc1` is 9 µM.
As for `N#Cc1c(-c2ccccc2)c(-c2ccccc2)n(Cc2ccccc2)c1/N=C/c1ccc(O)cc1`, the figure is 1.3 µM.
Take `COC(=O)c1ccc(/C=N/c2c(C#N)c(-c3ccccc3)c(-c3ccccc3)n2Cc2ccccc2)cc1`: the affinity corresponds to a Ki of 34 µM.
As for `N#Cc1c(-c2ccccc2)c(-c2ccccc2)n(Cc2ccccc2)c1/N=C/c1ccccc1`, the figure is 3.2 µM.

A word on the Ki: it is a dissociation constant, usually derived from enzyme kinetics or from competition with a known ligand.

Source of the values: BindingDB's records for doi:10.1016/j.bmcl.2023.129387 (The University of Queensland, 2023).
